In PubChem BioAssay (NCI):
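Protocol summary: plate cells (96-well), add compound at 5 concentrations, incubate 48 h, interpolate endpoints linearly. The concentration for 50% growth inhibition is given as GI50. TGI is the concentration that stops growth completely.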

How the values were obtained:
Test in all cases: inhibition of tumour cell growth, NCI panel, 48 h
[1] = test system: HCT-15 colon
[2] = test system: EKVX NSCLC
[3] = test system: NCI-H522 lung
[4] = test system: HCC-2998 colon
[5] = test system: SK-MEL-28 melanoma
[6] = test system: U251 CNS
[7] = test system: TK-10 renal
[8] = test system: SK-MEL-5 melanoma
[9] = test system: RPMI-8226 leukemia
[10] = test system: T-47D breast

Row | Structure (SMILES) | TGI [1] | TGI [2] | TGI [3] | TGI [4] | TGI [5] | TGI [6] | TGI [7] | TGI [8] | TGI [9] | GI50 [1] | GI50 [10] | TGI [10] | GI50 [2] | GI50 [3] | GI50 [5] | GI50 [6] | GI50 [8] | GI50 [9] | GI50 [7]
1 | CCCCCCCCCCCCC(Br)C(=O)SCCNC(=O)CCNC(=O)[C@@H](O)C(C)(C)COP(=O)(O)OP(=O)(O)OCC1OC(n2cnc3c(N)ncnc32)C(O)C1OP(=O)(O)O (stereo not given in full) | > 56.5 µM | > 56.5 µM | > 56.5 µM | > 56.5 µM | > 56.5 µM | > 56.5 µM | > 56.5 µM | > 56.5 µM |  |  |  |  |  |  |  |  |  |  | 
2 | COc1ccccc1NC(=O)C1=C(C)NC(C)=C(C(=O)Nc2ccccc2OC)C1c1ccc(C(C)C)cc1 | > 100 µM | > 100 µM |  | > 100 µM | > 100 µM | > 100 µM | > 100 µM | > 100 µM | > 100 µM |  |  |  |  |  |  |  |  |  | 
3 | CCN1C(=O)N(c2c(F)c(OC)cc(OC)c2F)Cc2cnc3[nH]c(CN4CCOCC4)cc3c21 | > 100 µM | > 100 µM | > 100 µM |  | > 100 µM | > 100 µM |  | > 100 µM | > 100 µM | 0.947 µM | 3.04 µM | 25 µM | 9.49 µM | 3.12 µM | 8.06 µM | 2.75 µM | 16.9 µM | 3.79 µM | 
4 | COc1nc2c(nc(N)n2C2OC(CO)C(O)C(O)C2O)c(=O)n1C (stereo not given) |  | > 100 µM | > 100 µM | > 100 µM | > 100 µM | > 100 µM | > 100 µM | > 100 µM |  |  |  |  |  |  |  |  |  |  | 
5 | COc1ccc(Cc2ccccc2C(=O)O)c2ccccc12 | 92.4 µM | 98.9 µM | 55.4 µM |  | 64.2 µM | 89.3 µM | 50.2 µM | 32.9 µM | > 100 µM |  |  | > 100 µM |  |  |  |  |  |  | 
6 | O=c1c2ccccc2nc(-c2ccc(Cl)cc2)n1O | > 100 µM | 77.9 µM | 57 µM |  |  | > 100 µM | 88 µM | > 100 µM | > 100 µM |  |  | > 100 µM |  |  |  |  |  |  | 
7 | CC(C)(C)c1cc(C(O)(C(F)(F)F)C(F)(F)F)c2c(c1)C(C(F)(F)F)(C(F)(F)F)OC(c1ccccc1)(C(C)(C)C)N2 (stereo not given) | 13.7 µM | 17.5 µM | 8.38 µM | 21.1 µM | 22.1 µM | 10.4 µM | 14.2 µM | 10.3 µM | 12.1 µM |  |  |  |  |  |  |  |  |  | 
8 | COC(=O)/C(C#N)=C1\N=NNN1CCCc1ccccc1 | > 100 µM | > 100 µM | 52.7 µM | > 100 µM | > 100 µM | > 100 µM | > 100 µM | > 100 µM | > 100 µM |  |  |  |  |  |  |  |  |  | 
9 | O=C(CC1C(=O)Nc2ccccc2S1=O)Nc1cccc(Cl)c1 (stereo not given) | > 100 µM | > 87.4 µM |  | > 100 µM | > 100 µM | > 100 µM | > 100 µM | > 46.1 µM | > 31 µM |  |  | 42.7 µM |  |  |  |  |  |  | 
10 | COC(=O)c1oc2c(C(=O)/C=C/c3ccc(OC)cc3)c(OCCCN3CCCCC3)ccc2c1C | 2.35 µM | 7.18 µM | 3.6 µM |  | 2.33 µM | 2.88 µM | 5.71 µM | 3.17 µM | 4 µM | 0.901 µM | 1.42 µM | 4.89 µM | 2.01 µM | 1.6 µM | 0.85 µM | 1.49 µM | 1.72 µM | 1.72 µM | 2.04 µM
11 | O=C1C(c2ccccc2)=C(c2ccccc2)C(c2ccccc2)/C1=C1\C(=O)C(c2ccccc2)=C(c2ccccc2)C1c1ccccc1 (stereo not given) | > 100 µM | > 100 µM | > 100 µM | > 100 µM | > 100 µM | > 100 µM | > 100 µM | > 100 µM | > 100 µM |  |  |  |  |  |  |  |  |  | 
